{"source": "patent US10278941B2", "about": "“Use of 2,5-dihydroxybenzene compounds and derivatives for the treatment of glioma” (AmDerma Pharmaceuticals, LLC, priority 2006, dated 2019)", "key": {"rat glioma C6 cells": {"tested_on": "rat glioma C6 cells", "assay": "Rat glioma C6 cell proliferation, crystal violet staining", "assay_type": "cell-based", "details": "48 h", "description": "The cell line used was rat glioma C6 cells. The cells were cultured as previously described (Cuevas P et al. Neurol Res, 2005). The cells were cultured as adherent cells in Dulbecco's modified Eagle's medium, supplemented with 7.5% (v/v) of fetal bovine serum, 10 μg/ml of streptomycin and 10 units/ml of penicillin. The tumor cells were seeded in 24-well plates at a density of 10,000 cells/well, and were incubated at 37° C. in a humidified chamber with 5% CO2. Once adhered, the cells were treated or not (controls) with 2,5-dihydroxybenzoate at 100, 200, 500 or 1000 μM and they were allowed to proliferate for 48 h. After this time the glioma cell proliferation was evaluated by means of staining the fixed cells with crystal violet. The number of cells is proportional to the amount of retained dye, which was spectrophotometrically determined by measuring the absorbance at 595 nm once the dye was extracted from the cells.\n(§1) The cell line used was the C6 cell line and the experiment was carried out as described in Example 2. Once adhered, the cells were treated or not (controls) with increasing concentrations of 2,5-DHC (10, 25, 50 and 100 μM) and they were allowed to proliferate for 48 h. After this time the glioma cell proliferation was evaluated by means of staining the fixed cells with crystal violet. The number of cells is proportional to the amount of retained dye, which was determined spectrophotometrically by measuring absorbance at 595 nm once the dye was extracted from the cells.\nas §1, with “examples 2 and 3.” for “Example 2.”, “(5A-2HBS) (500 μM) or (2A-5HBS) (500” for “increasing concentrations of 2,5-DHC (10, 25, 50 and 100”, “measuring the” for “measuring”"}, "[1]": {"tested_on": "human prostate cancer PC-3 cells", "assay": "Human tumor cell proliferation, XTT viability method, PC-3", "assay_type": "cell-based", "details": "1-200 μM, 96 h", "description": "(§2) The cell lines used were the human prostate cancer PC-3 cells and human lung cancer A549 cells. 2000 cells were seeded per well in 96-well plates and they were allowed to adhere overnight. Then the cells were treated or not (controls) with potassium 2,5-diacetoxybenzene sulfonate (DABS) (1-200 μM) and they were allowed to proliferate for 96 h. After this time, the PC-3 and A549 cell proliferation was evaluated by determining the final number of cells by means of the viability method of yellow tetrazolium salt (XTT). The data were expressed as a percentage of the control (without treatment)."}, "[2]": {"molecular_target": "T1, Fibroblast Growth Factor-1 (FGF-1) (Homo sapiens, UniProt P05230)", "T1 sequence (P05230 whole entry, species assumed)": "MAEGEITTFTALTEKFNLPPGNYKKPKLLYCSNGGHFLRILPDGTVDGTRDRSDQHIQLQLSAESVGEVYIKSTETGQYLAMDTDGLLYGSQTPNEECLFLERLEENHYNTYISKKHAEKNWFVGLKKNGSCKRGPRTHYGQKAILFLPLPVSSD", "assay": "Crystal diffraction of FGF-1:compound complexes", "assay_type": "binding", "details": "acetoxyl groups conserved when bound", "description": "Based on the crystal diffraction of the FGF-1:2-acetoxy-5-hydroxybenzene sulfonic acid, FGF-1:5-acetoxy-2-hydroxybenzene sulfonic acid and FGF-1:2,5-diacetoxybenzene sulfonic acid complexes, the structures of the complexes were calculated and represented. FIGS. 13, 14 and 15, which show the surface of the dyed protein according to its electrostatic potential (light grey, negative charge; dark grey, positive charge; white, regions with no charge), show the manner in which 2-acetoxy-5-hydroxybenzene sulfonic acid, 5-acetoxy-2-hydroxybenzene sulfonic acid and 2,5-diacetoxybenzene sulfonic acid interact, respectively, with FGF-1."}, "[3]": {"tested_on": "human prostate cancer PC-3 cells", "assay": "Subcutaneous PC-3 tumor progression in athymic mice", "assay_type": "in vivo, athymic mice (Nu/Nu)", "details": "100 mg/kg daily i.p., 15 days", "description": "5×10^6 human prostate cancer PC-3 cells were subcutaneously injected in male athymic mice (Nu/Nu) of 6-8 weeks of age and weighing 20-26 g. Ten days after the implantation of the tumor cells, the mice were randomly split into two groups: one of them received a daily injection of potassium 2,5-diacetoxybenzene sulfonate (DABS) by intraperitoneal route at a dose of 100 mg/kg dissolved in saline (0.9% NaCl) whereas the other group received a daily injection of carrier (saline). The treatments were administered for 15 days. The volumes of the tumors induced by the implantation of PC-3 cells were measured through the skin on alternating days using a Vernier caliper. The volume was calculated using the formula V=(D×2d)/2, where D is the larger diameter in mm, d is the smaller diameter in mm and V is the volume in mm3. At the end of treatment, the mice were sacrificed and the tumors were weighed."}, "[4]": {"tested_on": "subcutaneous gliomas (rat glioma C6 cells)", "assay": "Progression of established subcutaneous C6 gliomas in rats", "assay_type": "in vivo", "details": "for average size (volume) of the subcutaneous gliomas: vs carrier", "description": "Rat C6 glioma cells were cultured as previously described (Cuevas P et al. Neurol Res, 2005). The C6 cells cultured to confluence in 75 cm^2 flasks were removed and implanted under the abdominal skin in anesthetized rats. The existence of a tumor in the implantation area was observed five days after the implantation of the tumor cells. Only the rats in which the existence of a tumor was observed were randomly assigned to be treated with daily intraperitoneal injections of 2,5-dihydroxybenzene sulfonate (DHBS; 100 mg/kg/day), 2,5-diacetoxybenzene sulfonate (DABS; 100 mg/kg/day) or the carrier (0.9% NaCl). After 10 days of treatment, the subcutaneous gliomas were removed and their volume was calculated according to the formula V=4/3π·(L/2)·(A/2)^2 (in mm^3) where L is the larger diameter and A is the smaller diameter, both expressed in mm.\nTumor cells elude the programmed cell death process or apoptosis that normal cells experience. Apoptosis induction in tumor cells is one way to confront the development of a tumor. To evaluate the effect of potassium 2,5-dihydroxybenzene sulfonate […] on tumor cell apoptosis, 6 μm thick sections of the subcutaneous gliomas described in example 4 were made. The sections were stained with hematoxylin and eosin and observed at a magnification of 313 times using immersion oil. In these conditions, cell apoptosis is shown by the existence of apoptotic bodies appearing as strongly chromogenic granules in the cell nucleus which is frequently fragmented."}, "[5]": {"tested_on": "human lung cancer A549 cells", "assay": "Human tumor cell proliferation, XTT viability method, A549", "assay_type": "cell-based", "details": "1-200 μM, 96 h", "description": "as §2"}, "bFGF-induced fibrosis": {"tested_on": "bFGF-induced fibrosis", "assay": "bFGF-induced fibrosis, subcutaneous gelatin sponge implant", "assay_type": "in vivo, Sprague-Dawley rats", "details": "sponge with bFGF plus compound 100 μM, 7 days", "description": "Sterile gelatin sponges (1 mm^3; Curaspon Dental, Clinimed Holding, Zwanenburg, The Netherlands) were subcutaneously implanted in the dorsal region of the neck in Sprague-Dawley rats after the induction of intraperitoneal anesthesia. The animals were split into two groups: group A, the sponges were moistened with 200 μl of saline solution which contained 25 μg/ml of heparin and 10 μg/ml of basic FGF (bFGF); group B, the sponges were moistened in the same solution as in group A, but which solution further contained 2,5-dihydroxybenzoate (100 μM). After 7 days, the sponges and the surrounding subcutaneous fat were removed and histologically analyzed."}, "[6]": {"molecular_target": "T1, Fibroblast Growth Factor-1 (FGF-1)", "assay": "FGF-1-induced mitogenesis in quiescent Balb/c 3T3 fibroblast cultures", "assay_type": "cell-based", "details": "quiescent Balb/c 3T3 fibroblasts", "description": "The evaluated compounds were used in the form of potassium salt, except in the first case which used calcium salt. The experiments were carried out as described in Fernandez-Tornero C et al. J Biol Chem, 2003."}}, "data": [{"smiles": "O=C(O)C=Cc1cc(O)ccc1O", "note": "[2,5-DHC, 3-(2,5-dihydroxyphenyl)-2-propenoic acid]", "values": [{"measurement": "C6 cell proliferation", "setting": "rat glioma C6 cells; 50 μM", "result": "reduced the C6 cell proliferation to less than half"}, {"measurement": "C6 cell proliferation", "setting": "rat glioma C6 cells; 100 μM", "result": "proliferation was reduced to one tenth"}]}, {"smiles": "CC(=O)Oc1ccc(OC(C)=O)c(S(=O)(=O)[O-])c1.[K+]", "note": "[DABS, potassium 2,5-diacetoxybenzene sulfonate]", "values": [{"measurement": "PC-3 cell proliferation (percentage of control)", "setting": "[1]", "result": "caused a significant inhibition"}, {"measurement": "structural interaction with FGF-1 (binding site in co-crystal)", "setting": "[2]", "result": "occupy a site that is very close to the one that has been described occupied by 2,5-dihydroxybenzene sulfonic acid"}, {"measurement": "tumor growth (tumor volume)", "setting": "[3]", "result": "significantly reduced the human prostate cell tumor growth"}, {"measurement": "weight of the extracted tumor when treatment ended", "setting": "[3]", "result": "significant reduction of the weight of the extracted tumor"}, {"measurement": "tumor cell apoptosis in subcutaneous glioma sections (hematoxylin and eosin)", "setting": "[4]; 100 mg/kg/day i.p., 10 days", "result": "a large number of tumor cells in apoptosis can be observed"}, {"measurement": "probability of being tumor-free (χ2 test)", "setting": "[4]; DABS group vs DHBS group, 100 mg/kg/day", "result": "greater probability of being tumor-free"}, {"measurement": "average size (volume) of the subcutaneous gliomas", "setting": "[4]; i.p. 100 mg/kg/day, 10 days", "result": "this average volume was even less"}, {"measurement": "rats tumor-free when treatment ended", "setting": "[4]; i.p. 100 mg/kg/day, 10 days, all rats had established tumors prior to treatment", "result": 4, "unit": "rats"}, {"measurement": "A549 cell proliferation (percentage of control)", "setting": "[5]", "result": "caused a significant inhibition"}]}, {"smiles": "O=C([O-])c1cc(O)ccc1O.[K+]", "note": "[2,5-dihydroxybenzoate, potassium 2,5-dihydroxybenzoate]", "values": [{"measurement": "rat glioma C6 cell proliferation (absorbance at 595 nm)", "setting": "rat glioma C6 cells; 100, 200, 500 or 1000 μM", "result": "inhibited rat glioma C6 cell proliferation in a concentration-dependent manner, an effect which was statistically significant at the concentrations of 500 and 1000 μM"}, {"measurement": "bFGF-induced fibrosis (fibroblasts in septa of connective tissue of adipose tissue)", "setting": "bFGF-induced fibrosis", "result": "reduces bFGF-induced fibrosis"}]}, {"smiles": "O=S(=O)([O-])c1cc(O)ccc1O.[K+]", "note": "[DHBS, potassium 2,5-dihydroxybenzene sulfonate, reference compound]", "values": [{"measurement": "average size (volume) of the subcutaneous gliomas", "setting": "[4]; i.p. 100 mg/kg/day, 10 days", "result": "less than that of the rats treated with carrier"}, {"measurement": "inhibition of mitogenesis induced by FGF-1", "setting": "[6]", "result": "inhibition of the mitogenesis induced by fibroblast growth factor 1"}]}, {"smiles": "CC(=O)Oc1ccc(O)cc1S(=O)(=O)[O-].[K+]", "note": "[2A-5HBS, potassium 2-acetoxy-5-hydroxybenzene sulfonate]", "values": [{"measurement": "structural interaction with FGF-1 (binding site in co-crystal)", "setting": "[2]", "result": "occupy a site that is very close to the one that has been described occupied by 2,5-dihydroxybenzene sulfonic acid"}]}, {"smiles": "CC(=O)Oc1ccc(O)c(S(=O)(=O)[O-])c1.[K+]", "note": "[5A-2HBS, potassium 5-acetoxy-2-hydroxybenzene sulfonate]", "values": [{"measurement": "structural interaction with FGF-1 (binding site in co-crystal)", "setting": "[2]", "result": "occupy a site that is very close to the one that has been described occupied by 2,5-dihydroxybenzene sulfonic acid"}]}]}
